This is an account of results in patent US6780839B2, “Use of secretin-receptor ligands in treatment of cystic fibrosis (CF) and chronic obstructive pulmonary disease (COPD)” (Pharmagene Laboratories Ltd., priority 2000, dated 2004).

The subject of assay [1] is human tertiary bronchus from non-CF donors. As to the kind of experiment: Short circuit current across the bronchial wall, modified Ussing chamber. The class given is cell-based. From the text: In brief, non-branching regions of the human tertiary bronchus from non-CF donors were dissected, cut longitudinally and mounted in between the two compartments of a modified Ussing chamber to measure the short circuit current across the bronchial wall. Both luminal (airway) and basolateral membranes were bathed in oxygenated Krebs extracellular solution and the tissue voltage clamped to zero to allow changes in short circuit current in response to secretin to be measured. Amiloride at a concentration of 10 μM was initially added to the luminal membrane (FIG. 5, point a)(as described by those in the art) to partially block the predominant sodium ion current and unmask underlying ionic currents. On attainment of a stable base line, 3 μM human secretin (supplied by Sigma, catalogue number S714) was added to the luminal membrane (FIG. 5, point b).

Assay [2] deals with primary human tertiary bronchial epithelial cells. As to the kind of experiment: Cl- efflux by MQAE fluorescence. The class given is cell-based. The conditions noted are these: FIG. 8. As for the experimental part: Molecular Probes). In brief, primary human, tertiary bronchial epithelial cells were isolated as previously described and cultured in a 96 well plate. On reaching confluency, cells were loaded overnight with 4 mM MQAE. Cells were washed in a chloride containing HEPES buffer, before passive Cl^− efflux was initiated by the addition of a Cl^− free buffer. […] 100 nM Secretin mediated Cl^− efflux was inhibited by the non-selective Cl^− blocker NPPB (open circles).

For assay [3], the system named is human CF tertiary bronchus. As to the kind of experiment: Short circuit current in CF bronchus, modified Ussing chamber. It is filed as cell-based.
Protocol: The experiment described above was repeated using human CF tertiary bronchus, using 1 μM secretin.
In assay [4] the test system is primary human tertiary bronchial epithelial cells derived from non-CF donors. As to the kind of experiment: Short circuit current in confluent tertiary bronchial epithelial cell monolayers, modified Ussing chamber. It is filed as cell-based. From the text:
Functional effects of the secretin receptor were probed in epithelial cells derived from the human tertiary bronchus. In brief, tertiary bronchial epithelial were isolated by overnight protease digestion and then cultured until confluency on Snapwell (Costar) permeable supports. The supports were mounted in a modified Ussing chamber, and both luminal and basolateral membranes were bathed in oxygenated Krebs extracellular solution. The cells were voltage clamped to zero to allow changes in short circuit current Isc in response to secretin to be measured. As previously described, 10 μM amiloride was initially added to the luminal membrane (FIG. 6, point a)followed by the addition of 100 μM secretin to the luminal membrane (FIG. 6, point b). A time matched, amiloride-treated control is denoted by the thin trace.

A further assay relates to rat cholangiocytes. To be noted: by translocation of AQP-1 water channels; cited from earlier work.
A further assay has as its system rats. To be noted: injected intracerebroventricularly; cited from earlier work.
Setting [5] is: 10 μM ATP or UTP on apical membrane, FIG. 5 point c.

With `Nc1ncnc2c1ncn2[C@@H]1O[C@H](COP(=O)(O)OP(=O)(O)OP(=O)(O)O)[C@@H](O)[C@H]1O` [ATP], the “ionic movement (short circuit current)” value in assay [1] (setting [5]) is reported as “stimulate a similar ionic movement of similar magnitude”.
Regarding `O=C(O)c1cc([N+](=O)[O-])ccc1NCCCc1ccccc1` [NPPB, 5-nitro-2-(3-phenylpropyl-amino)benzoic acid], the “effect on secretin mediated changes in MQAE fluorescence (Cl- efflux)” value in assay [2] (100 μM NPPB with 100 nM secretin) was “abolished”.
With `O=c1ccn([C@@H]2O[C@H](COP(=O)(O)OP(=O)(O)OP(=O)(O)O)[C@@H](O)[C@H]2O)c(=O)[nH]1` [UTP], the “ionic movement (short circuit current)” value in assay [1] (setting [5]) is recorded as “stimulate a similar ionic movement of similar magnitude”.
Take `N=C(N)NC(=O)c1nc(Cl)c(N)nc1N` [amiloride]: the “effect on underlying sodium current” value in assay [3] (amiloride, FIG. 7 point a) is given as “blocks the underlying sodium current”.
`COc1ccc(Cl)cc1C(=O)NCCc1ccc(S(=O)(=O)NC(=O)NC2CCCCC2)cc1` [glibenclamide]: the “suppression of secretin mediated ionic movement” value in assay [4] (500 μM glibenclamide (CFTR inhibitor)) is “failed to suppress secretin mediated ionic movement”.
As for secretin, in assay [1] (3 μM human secretin on luminal membrane after 10 μM amiloride, FIG. 5), the “ionic movement (short circuit current)” value is given as “stimulate ionic movement in a manner consistent with the movement of a negatively charged ion”. Besides, in assay [4] (100 μM secretin on luminal membrane after 10 μM amiloride, FIG. 6), the “ionic movement (short circuit current Isc)” value is reported as “stimulated ionic movement in a manner consistent with the movement of a negatively charged ion”. Further, in assay [3] (1 μM secretin after amiloride, FIG. 7 point b), the “ionic movement (short circuit current)” value is reported as “stimulates ionic movement of a negatively charged ion”. In assay [2] (nanomolar concentrations of secretin (12.5 nM, 100 nM), Cl- free buffer), the “Cl- efflux (changes in MQAE fluorescence)” value is “stimulated Cl^− efflux”. In addition, the “concentration dependent increase in osmotic H2O permeability” value in the assay with rat cholangiocytes is recorded as 60%. Also, in the assay on rats, the defecation result is recorded as “significantly increased defecation”, the novel-object approaches result is listed as “decreased novel-object approaches” and the stereotypic behaviour entry is listed as “no significant effects on stereotypic behaviour”.
